Measured values from patent US9149038B2, “4-amino-6-(heterocyclic)picolinates and 6-amino-2-(heterocyclic)pyrimidine-4-carboxylates and their use as herbicides” (Dow AgroSciences LLC, priority 2013, dated 2015).
Read-outs that look alike come from different tables or passages of the source.

Test system: Direct Seeded Rice and weed species
Assay: Postemergence herbicidal activity in direct seeded rice, visual rating after 20-22 days and probit GR20/GR50/GR80/GR90 (Table 14)
Format: in vivo
Settings: for pest or weed control at 17.5 g/ha / pest or weed control at 35 g/ha / pest or weed control at 70 g/ha: post-emergence, 504 h, postemergence; for pest or weed control at 17.5 g/ha: 17.5 g ai/ha; for pest or weed control at 35 g/ha: 35 g ai/ha; for pest or weed control at 70 g/ha: 70 g ai/ha
How it was run: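 Rice and weeds grown in loam–sand soil (pH about 8.1) in greenhouse to 2nd–3rd true leaf, then sprayed postemergence at 187 L/ha in acetone/DMSO with 1.25% (v/v) Agri-dex crop oil. Injury rated visually 0–100 after 20-22 days versus untreated plants; GR20, GR50, GR80, GR90 obtained by probit analysis across dose rates.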

[1] = BRAPP (broadleaf signalgrass, Brachiaria platyphylla), read-out: Visual Growth Reduction (%) 21 Days After Application BRAPP
[2] = CYPDI (small-flower flatsedge, Cyperus difformis), read-out: Visual Growth Reduction (%) 21 Days After Application CYPDI
[3] = CYPES (yellow nutsedge, Cyperus esculentus), read-out: Visual Growth Reduction (%) 21 Days After Application CYPES
[4] = CYPIR (rice flatsedge, Cyperus iria), read-out: Visual Growth Reduction (%) 21 Days After Application CYPIR
[5] = DIGSA (large crabgrass, Digitaria sanguinalis), read-out: Visual Growth Reduction (%) 21 Days After Application DIGSA
[6] = ECHCG (barnyardgrass, Echinochloa crus-galli), read-out: Visual Growth Reduction (%) 21 Days After Application ECHCG
[7] = ECHCO (junglerice, Echinochloa colonum), read-out: Visual Growth Reduction (%) 21 Days After Application ECHCO
[8] = LEFCH (Chinese sprangletop, Leptochloa chinensis), read-out: Visual Growth Reduction (%) 21 Days After Application LEFCH
[9] = ORYSJ (Oryza sativa, rice crop), read-out: Visual Growth Reduction (%) 21 Days After Application ORYSJ
[10] = ORYSK (Oryza sativa, rice crop), read-out: Visual Growth Reduction (%) 21 Days After Application ORYSK
[11] = SCPJU (Japanese bulrush, Schoenoplectus juncoides Roxb.), read-out: Visual Growth Reduction (%) 21 Days After Application SCPJU
[12] = SEBEX (hemp sesbania, Sesbania exaltata), read-out: Visual Growth Reduction (%) 21 Days After Application SEBEX

## Nc1c(F)c(-c2ccc3c(c2F)OC(F)(F)O3)nc(C(=O)O)c1Cl [Compound 11]
BRAPP (Brachiaria platyphylla), probit analysis, dose for 50 percent growth reduction
  GR50 BRAPP: 7 g ai/ha
BRAPP (Brachiaria platyphylla), probit analysis, dose for 80 percent growth reduction
  GR80 BRAPP: 16 g ai/ha
BRAPP (Brachiaria platyphylla), probit analysis, dose for 90 percent growth reduction
  GR90 BRAPP: 25 g ai/ha
CYPDI (Cyperus difformis), probit analysis, dose for 50 percent growth reduction
  GR50 CYPDI: 3 g ai/ha
CYPDI (Cyperus difformis), probit analysis, dose for 80 percent growth reduction
  GR80 CYPDI: 7 g ai/ha
CYPDI (Cyperus difformis), probit analysis, dose for 90 percent growth reduction
  GR90 CYPDI: 10 g ai/ha
CYPES (Cyperus esculentus), probit analysis, dose for 50 percent growth reduction
  GR50 CYPES: <18 g ai/ha
CYPES (Cyperus esculentus), probit analysis, dose for 80 percent growth reduction
  GR80 CYPES: <18 g ai/ha
CYPES (Cyperus esculentus), probit analysis, dose for 90 percent growth reduction
  GR90 CYPES: <18 g ai/ha
CYPIR (Cyperus iria), probit analysis, dose for 50 percent growth reduction
  GR50 CYPIR: 5 g ai/ha
CYPIR (Cyperus iria), probit analysis, dose for 80 percent growth reduction
  GR80 CYPIR: 7 g ai/ha
CYPIR (Cyperus iria), probit analysis, dose for 90 percent growth reduction
  GR90 CYPIR: 7 g ai/ha
DIGSA (Digitaria sanguinalis), probit analysis, dose for 50 percent growth reduction
  GR50 DIGSA: 1 g ai/ha
DIGSA (Digitaria sanguinalis), probit analysis, dose for 80 percent growth reduction
  GR80 DIGSA: 4 g ai/ha
DIGSA (Digitaria sanguinalis), probit analysis, dose for 90 percent growth reduction
  GR90 DIGSA: 9 g ai/ha
ECHCG (Echinochloa crus-galli), probit analysis, dose for 50 percent growth reduction
  GR50 ECHCG: 7 g ai/ha
ECHCG (Echinochloa crus-galli), probit analysis, dose for 80 percent growth reduction
  GR80 ECHCG: 15 g ai/ha
ECHCG (Echinochloa crus-galli), probit analysis, dose for 90 percent growth reduction
  GR90 ECHCG: 23 g ai/ha
ECHCO (Echinochloa colonum), probit analysis, dose for 50 percent growth reduction
  GR50 ECHCO: 4 g ai/ha
ECHCO (Echinochloa colonum), probit analysis, dose for 80 percent growth reduction
  GR80 ECHCO: 9 g ai/ha
ECHCO (Echinochloa colonum), probit analysis, dose for 90 percent growth reduction
  GR90 ECHCO: 14 g ai/ha
LEFCH (Leptochloa chinensis), probit analysis, dose for 50 percent growth reduction
  GR50 LEFCH: 23 g ai/ha
LEFCH (Leptochloa chinensis), probit analysis, dose for 80 percent growth reduction
  GR80 LEFCH: 34 g ai/ha
LEFCH (Leptochloa chinensis), probit analysis, dose for 90 percent growth reduction
  GR90 LEFCH: 41 g ai/ha
ORYSJ (Oryza sativa, rice crop), probit analysis, dose for 20 percent growth reduction
  GR20 ORYSJ: 8 g ai/ha
ORYSK (Oryza sativa, rice crop), probit analysis, dose for 20 percent growth reduction
  GR20 ORYSK: 7 g ai/ha
SCPJU (Schoenoplectus juncoides Roxb.), probit analysis, dose for 50 percent growth reduction
  GR50 SCPJU: 0.04 g ai/ha
SCPJU (Schoenoplectus juncoides Roxb.), probit analysis, dose for 80 percent growth reduction
  GR80 SCPJU: 1 g ai/ha
SCPJU (Schoenoplectus juncoides Roxb.), probit analysis, dose for 90 percent growth reduction
  GR90 SCPJU: 2 g ai/ha
SEBEX (Sesbania exaltata), probit analysis, dose for 50 percent growth reduction
  GR50 SEBEX: 3 g ai/ha
SEBEX (Sesbania exaltata), probit analysis, dose for 80 percent growth reduction
  GR80 SEBEX: 7 g ai/ha
SEBEX (Sesbania exaltata), probit analysis, dose for 90 percent growth reduction
  GR90 SEBEX: 10 g ai/ha
[1]
  pest or weed control at 17.5 g/ha: 85 to 94%
  pest or weed control at 35 g/ha: 95 to 100%
  pest or weed control at 70 g/ha: 95 to 100%
[2]
  pest or weed control at 17.5 g/ha: 95 to 100%
  pest or weed control at 35 g/ha: 95 to 100%
  pest or weed control at 70 g/ha: 95 to 100%
[3]
  pest or weed control at 17.5 g/ha: 85 to 94%
  pest or weed control at 35 g/ha: 95 to 100%
  pest or weed control at 70 g/ha: 95 to 100%
[4]
  pest or weed control at 17.5 g/ha: 95 to 100%
  pest or weed control at 35 g/ha: 95 to 100%
  pest or weed control at 70 g/ha: 95 to 100%
[5]
  pest or weed control at 17.5 g/ha: 95 to 100%
  pest or weed control at 35 g/ha: 95 to 100%
  pest or weed control at 70 g/ha: 95 to 100%
[6]
  pest or weed control at 17.5 g/ha: 95 to 100%
  pest or weed control at 35 g/ha: 85 to 94%
  pest or weed control at 70 g/ha: 95 to 100%
[7]
  pest or weed control at 17.5 g/ha: 95 to 100%
  pest or weed control at 35 g/ha: 95 to 100%
  pest or weed control at 70 g/ha: 95 to 100%
[8]
  pest or weed control at 17.5 g/ha: 0 to 29%
  pest or weed control at 35 g/ha: 95 to 100%
  pest or weed control at 70 g/ha: 95 to 100%
[9]
  pest or weed control at 17.5 g/ha: 30 to 44%
  pest or weed control at 35 g/ha: 75 to 84%
  pest or weed control at 70 g/ha: 85 to 94%
[10]
  pest or weed control at 17.5 g/ha: 45 to 59%
  pest or weed control at 35 g/ha: 60 to 74%
  pest or weed control at 70 g/ha: 75 to 84%
[11]
  pest or weed control at 17.5 g/ha: 95 to 100%
  pest or weed control at 35 g/ha: 95 to 100%
  pest or weed control at 70 g/ha: 95 to 100%
[12]
  pest or weed control at 17.5 g/ha: 95 to 100%
  pest or weed control at 35 g/ha: 95 to 100%
  pest or weed control at 70 g/ha: 95 to 100%
